# Source: ChEMBL document CHEMBL4680272 (Eur J Med Chem, 2020)
# Assay: Inhibition of Influenza A virus (A/California/04/2009 (H1N1-H274Y)) Neuraminidase using MUNANA as substrate preincubated for 5 to 15 mins followed by substrate addition and measured after 30 mins by fluorescence spectrophotometric method
row,Compound,IC50 [µM]
1,CCC(CC)O[C@@H]1C=C(C(=O)O)C[C@H](NC(N)=O)[C@H]1NC(C)=O,0.667
2,CCC(CC)O[C@@H]1C=C(C(=O)O)C[C@H](N)[C@H]1NC(C)=O [OSELTAMIVIR CARBOXYLATE],4.07
